Results on 7 compounds are retold here after patent publication US6153589A, “2,3-epoxy alcohols, acids and derivatives as anti retroviral chemotherapeutic agents” (The United States of America as represented by the …, priority 1992, dated 2000).

The subject of assay [1] is HIV-2 protease. In words: HIV protease cleavage of nonapeptide (HPLC). Type of assay: biochemical. The following applies: 0.5 μl of 10 μg/μl inhibitor in DMSO per 10 μl reaction; pH 6.5, room temperature; pentapeptide product relative to DMSO control; sampled at ca. 16 and 40 hr (time not given). How it is done: Activity Against HIV Protease
The assay for proteolyic activity is a modified version of that previously described by Copeland et al., Gene Anal. Tech., 5:109-115 (1988). For each assay to be performed 2 microliters of protease solution (ca. 100 ng) is added to 3 μg of nonapeptide (Val-Ser-Gln-Asn-Tyr-Pro-Ile-Val-Gln-NH2) in 8 μl of 200 mM sodium phosphate, 1 M NaCl, 5% glycerol, 0.25% Nonidet-40, at pH 6.5. This affords a stock solution containing 10 μl per number of reactions. This stock is aliquoted out in 10 μl portions to which 0.5 μl of DMSO (a control is run with each set of assays to compensate for minor experimental variations) or a DMSO solution containing 10 μg/μl of an inhibitor, i.e., any one of the compounds of the present invention, is added. The reactions were incubated at room temperature and 4 μl portions were removed at ca. 16 and 40 hr. intervals. HPLC analysis was performed on a 4.6×250 mm Lichrosorb RP-18 column eluted with a gradient of 0-40% acetonitrile in water (containing 0.05% TFA) over 30 min monitoring absorbance at 206 nm. Progress of the enzymatic cleavage was followed by monitoring the appearance of the pentapeptide (Val-Ser-Gln-Asn-Tyr-OH) cleavage product. The activity is expressed as the amount of the pentapeptide (Val-Ser-Gln-Asn-Tyr-OH) observed relative to the control reaction for that set of assays.
Inhibition of HIV-2 protease

In assay [2] the target is T1, porcine Renin (Sus scrofa, UniProt A0A287APG1).
T1 construct: purchased Sigma
T1 sequence (A0A287APG1 24-407): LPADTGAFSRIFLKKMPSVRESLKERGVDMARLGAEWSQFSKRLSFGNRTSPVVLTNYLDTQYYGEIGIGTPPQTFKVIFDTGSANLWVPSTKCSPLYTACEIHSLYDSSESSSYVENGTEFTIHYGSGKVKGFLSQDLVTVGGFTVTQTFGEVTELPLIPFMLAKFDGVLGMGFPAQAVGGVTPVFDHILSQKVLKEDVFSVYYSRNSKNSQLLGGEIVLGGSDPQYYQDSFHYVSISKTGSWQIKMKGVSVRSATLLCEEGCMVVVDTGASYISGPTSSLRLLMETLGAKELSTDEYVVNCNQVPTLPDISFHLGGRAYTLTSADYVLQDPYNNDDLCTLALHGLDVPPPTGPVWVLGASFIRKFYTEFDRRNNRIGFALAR
In words: Porcine Renin cleavage of porcine tetradecapeptide (HPLC). Particulars: 0.5 μl of 50 μg/μl inhibitor in DMSO in 50 μl; pH 6.00, room temperature, 70 min; relative to uninhibited control. In kind it is biochemical. An excerpt:
Renin Activity: Porcine Renin Cleavage of Porcine Tetradecapeptide
Proteolytic enzymes are ubiquitous in many living systems. Renin is an asparxyl protease found in mammals which is responsible for the regulation of blood pressure. Structural and functional similarities between Renin and retroviral proteases have been previously noted (Pearl, L. H., Taylor, W. R., (1987) Nature, 329, 351-354). Consequently, successful therapeutic inhibition of retroviral proteases depends on the ability of the inhibitor to inhibit the retroviral enzyme while having a greatly diminished effect on normally occurring enzymes like Renin. The failure to inhibit the desired enzyme selectively may have an adverse effect on normal biochemical functions. The similarity of Renin to retroviral proteases and its viral normal bodily function makes it an attractive system in which to examine inhibitory selectivity.
Renin activity was determined by a method similar to that described above for the HIV protease. A solution containing 0.37 m unit (0.5 μl of stock solution containing 0.75 m unit/μl) of porcine Renin (Sigma) was added to 5 μg of porcine angiotensinogen in 50 μl of 0.1 M citrate-phosphate buffer (pH 6.00) containing 0.25% NP-40. A DMSO solution containing the inhibitor (0.5 μl of a 50 μg/μl solution) was added and the reaction was allowed to incubate at room temperature for 70 min. The entire mixture was analyzed by HPLC chromatographic analysis was perforemd on a 4.6×250 mm Lichrosorb RP-18 column eluting with a gradient of 0-50% acetonitrile in 0.02 M KH2 Po4 (pH 4.7) over 30 min monitoring absorbance at 206 nm. Appearance of both the tetrapeptide and the decapeptide products may be monitored under these conditions. Enzyme activity is expressed as the amount of tetrapeptide produced relative to an uninhibited control, and are summarized in Table 3 below.

The test system of assay [3] is HIV1 IIIb. In words: microbe, parasite or virus in culture. In kind it is cell-based. The following applies: Human immunodeficiency virus 1, IIIB; for viability at 10 µg/mL: 10 ug/ml; for viability at 23 µg/mL: 23 ug/ml; for viability at 11.5 µg/mL: 11.5 ug/ml; for viability at 31.9 µg/mL: 31.9 ug/ml; for viability at 3.9 µg/mL: 3.9 ug/ml; for viability at 1 µg/mL: 1 ug/ml; for viability at 6.3 µg/mL: 6.3 ug/ml; for viability at 31.5 µg/mL: 31.5 ug/ml; for viability at 24.6 µg/mL: 24.6 ug/ml; for viability at 27.2 µg/mL: 27.2 ug/ml. A digest of the protocol:
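Human host cells infected with HIV1 IIIb (virus-producing H9 cells or cell-free virus) and incubated seven days with compound. Viable cells measured by XTT formazan absorbance; response expressed as % of uninfected controls against virus kill %. Some cultures redosed after 3 days.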

Setting [4] is: 168 h, read-out: Antiviral Effect (viable cells as % of uninfected controls), run 15*, source V (cell free virus), virus kill 25.0%, culture redosed with compound after 3 days.

The structures appear in SMILES notation. Where two headings read alike, the source gives them in different places.

In the case of `O=[N+]([O-])c1ccc(OCC2CO2)cc1` (stereo not drawn) [1,2-Epoxy-3-(p-nitrophenoxy)propane, reference compound], the “Percent Control Cleavage of Nonapeptide HIV-1 Cleavage Site Fragment” value (from here on “Percent Control Cleavage”) in assay [1] came out at 18%. Besides, in assay [2], the “Percent control (tetrapeptide produced)” value stood at 106%.

`CCCCCCCCC[C@H]1O[C@H]1CO` [Example 11, (2S-cis)-3-Nonyloxirane Methanol]: the viability at 10 µg/mL turned out to be 110% in assay [3] (168 h, read-out: Antiviral Effect (viable cells as % of uninfected controls), run 8, source V (cell free virus), virus kill 25.0%) and 60.2% in assay [3] (H9, 168 h, read-out: Antiviral Effect (viable cells as % of uninfected controls), run 1, source C (virus producing H9 cells), virus kill 6.0%). Also, the viability at 23 µg/mL amounted to 30% in assay [3] (168 h, read-out: Antiviral Effect (viable cells as % of uninfected controls), run 9, source V (cell free virus), virus kill 23.0%) and 19.9% in assay [3] (H9, 168 h, read-out: Antiviral Effect (viable cells as % of uninfected controls), run 3, source C (virus producing H9 cells), virus kill 14.0%). Also, the viability at 11.5 µg/mL is 68.5% in assay [3] (168 h, read-out: Antiviral Effect (viable cells as % of uninfected controls), run 10, source V (cell free virus), virus kill 49.0%); 80.4% in assay [3] (168 h, read-out: Antiviral Effect (viable cells as % of uninfected controls), run 12, source V (cell free virus), virus kill 30.0%); 18.1% in assay [3] (H9, 168 h, read-out: Antiviral Effect (viable cells as % of uninfected controls), run 4, source C (virus producing H9 cells), virus kill 12.5%); 12.3% in assay [3] (H9, 168 h, read-out: Antiviral Effect (viable cells as % of uninfected controls), run 6, source C (virus producing H9 cells), virus kill 9.0%). Besides, the viability at 31.9 µg/mL in assay [3] (168 h, read-out: Antiviral Effect (viable cells as % of uninfected controls), run 11, source V (cell free virus), virus kill 53.0%) was 65.1%; in assay [3] (168 h, read-out: Antiviral Effect (viable cells as % of uninfected controls), run 13, source V (cell free virus), virus kill 22.0%), 82.6%; in assay [3] (H9, 168 h, read-out: Antiviral Effect (viable cells as % of uninfected controls), run 5, source C (virus producing H9 cells), virus kill 13.0%), 23.9%; in assay [3] (H9, 168 h, read-out: Antiviral Effect (viable cells as % of uninfected controls), run 7, source C (virus producing H9 cells), virus kill 11.0%), 13%. The viability at 3.9 µg/mL in assay [3] (168 h, read-out: Antiviral Effect (viable cells as % of uninfected controls), run 14, source V (cell free virus), virus kill 20.0%) was determined as 21.5%; in assay [3] (setting [4]) it was 32.4%. Further, the viability at 1 µg/mL in assay [3] (H9, 168 h, read-out: Antiviral Effect (viable cells as % of uninfected controls), run 2, source C (virus producing H9 cells), virus kill 25.0%) was determined as 37.5%. In assay [1], the “Percent Control Cleavage” value is recorded as 85%. In assay [2], the “Percent control (tetrapeptide produced)” value amounted to 106%.

Regarding `CCCCCCCCC[C@H]1O[C@H]1C(=O)O` [Example 21, (2R-cis)-3-Nonyloxiranecarboxylic Acid], the viability at 10 µg/mL in assay [3] (168 h, read-out: Antiviral Effect (viable cells as % of uninfected controls), run 8, source V (cell free virus), virus kill 23.0%) stood at 94%; in assay [3] (H9, 168 h, read-out: Antiviral Effect (viable cells as % of uninfected controls), run 2, source C (virus producing H9 cells), virus kill 22.0%), 27.3%. Also, the viability at 6.3 µg/mL is 25.7% in assay [3] (168 h, read-out: Antiviral Effect (viable cells as % of uninfected controls), run 9, source V (cell free virus), virus kill 19.0%) and 16.6% in assay [3] (H9, 168 h, read-out: Antiviral Effect (viable cells as % of uninfected controls), run 3, source C (virus producing H9 cells), virus kill 12.0%). Also, the viability at 31.5 µg/mL in assay [3] (168 h, read-out: Antiviral Effect (viable cells as % of uninfected controls), run 10, source V (cell free virus), virus kill 53.0%) turned out to be 75.3%; in assay [3] (168 h, read-out: Antiviral Effect (viable cells as % of uninfected controls), run 12, source V (cell free virus), virus kill 27.0%) it was 62%; in assay [3] (H9, 168 h, read-out: Antiviral Effect (viable cells as % of uninfected controls), run 4, source C (virus producing H9 cells), virus kill 14.0%) it was 19.6%; in assay [3] (H9, 168 h, read-out: Antiviral Effect (viable cells as % of uninfected controls), run 6, source C (virus producing H9 cells), virus kill 12.0%), 10.7%. The viability at 24.6 µg/mL in assay [3] (168 h, read-out: Antiviral Effect (viable cells as % of uninfected controls), run 11, source V (cell free virus), virus kill 57.0%) came out at 64.3%; in assay [3] (168 h, read-out: Antiviral Effect (viable cells as % of uninfected controls), run 13, source V (cell free virus), virus kill 40.0%), 88%; in assay [3] (H9, 168 h, read-out: Antiviral Effect (viable cells as % of uninfected controls), run 5, source C (virus producing H9 cells), virus kill 14.0%), 21.6%; in assay [3] (H9, 168 h, read-out: Antiviral Effect (viable cells as % of uninfected controls), run 7, source C (virus producing H9 cells), virus kill 18.0%), 13%. Also, the viability at 27.2 µg/mL in assay [3] (168 h, read-out: Antiviral Effect (viable cells as % of uninfected controls), run 14, source V (cell free virus), virus kill 18.0%) is 25.7%; in assay [3] (setting [4]), 28.1%. Moreover, the viability at 1 µg/mL in assay [3] (H9, 168 h, read-out: Antiviral Effect (viable cells as % of uninfected controls), run 1, source C (virus producing H9 cells), virus kill 9.0%) was found to be 18.9%. Further, in assay [2], the “Percent control (tetrapeptide produced)” value is 86%.

Turning to `CCCCCCCCC[C@@H]1O[C@H]1C(=O)O` [Example 35, (2R-trans)-3-Nonyloxiranecarboxylic Acid], the “Percent Control Cleavage” value in assay [1] is 77%. In assay [2], the “Percent control (tetrapeptide produced)” value worked out at 72%.

Consider `CCCCCCCCC[C@H]1O[C@@H]1C(=O)O` [Example 36, (2S-trans)-3-Nonyloxiranecarboxylic acid], for which the “Percent Control Cleavage” value in assay [1] was 12%. Besides, the “Percent control (tetrapeptide produced)” value in assay [2] is given as 12%.

For `CCCCCCCCCCC[C@@H]1O[C@H]1C(=O)O` [Example 39, (2R-trans)-3-Undecyloxiranecarboxylic Acid], in assay [2], the “Percent control (tetrapeptide produced)” value turned out to be 51%.

For the compound `CCCCCCCCCCC[C@H]1O[C@@H]1C(=O)O` [Example 40, (2S-trans)-3-Undecyloxiranecarboxylic Acid], the “Percent Control Cleavage” value in assay [1] is listed as 93%. Also, in assay [2], the “Percent control (tetrapeptide produced)” value is 71%.
